Reference: US8980325B2, “Compositions and methods for treating digestive disorders” (Revalesio Corporation, priority 2008, dated 2015)

Test system: glutathione peroxidase
Test: Hydrogen peroxide tests, glutathione peroxidase reactivity
Type: biochemical
Conditions: A340 nm, 25 degrees Celsius; low and high concentration
Method: The inventive oxygen-enriched output fluid material was tested for the presence of hydrogen peroxide by testing the reactivity with glutathione peroxidase using a standard assay (Sigma). Briefly, glutathione peroxidase enzyme cocktail was constituted in deionized water and the appropriate buffers. Water samples were tested by adding the enzyme cocktail and inverting. Continuous spectrophotometric rate determination was made at A340 nm, and room temperature (25 degrees Celsius).
Water samples were tested by adding the enzyme cocktail and inverting. Continuous spectrophotometric rate determination was made at A340 nm, and room temperature (25 degrees Celsius).

Structure (SMILES): OO [hydrogen peroxide]
- reactivity with glutathione peroxidase: strong reactivity
